The text below walks through data of ChEMBL document CHEMBL1128049, “5-cyano-1-[3-(N-methylpyrrolidin-2R-ylmethyl)indol-5-yl] benzimidazole (CP-161,242): A potent, centrally active 5-HT1D receptor agonist and benzodiazepine partial agonist” (Bioorg Med Chem Lett, 1995).

The target of assay [1] is T1, 5-hydroxytryptamine receptor 1A (Rattus norvegicus, UniProt P19327).
T1 sequence (P19327 whole entry): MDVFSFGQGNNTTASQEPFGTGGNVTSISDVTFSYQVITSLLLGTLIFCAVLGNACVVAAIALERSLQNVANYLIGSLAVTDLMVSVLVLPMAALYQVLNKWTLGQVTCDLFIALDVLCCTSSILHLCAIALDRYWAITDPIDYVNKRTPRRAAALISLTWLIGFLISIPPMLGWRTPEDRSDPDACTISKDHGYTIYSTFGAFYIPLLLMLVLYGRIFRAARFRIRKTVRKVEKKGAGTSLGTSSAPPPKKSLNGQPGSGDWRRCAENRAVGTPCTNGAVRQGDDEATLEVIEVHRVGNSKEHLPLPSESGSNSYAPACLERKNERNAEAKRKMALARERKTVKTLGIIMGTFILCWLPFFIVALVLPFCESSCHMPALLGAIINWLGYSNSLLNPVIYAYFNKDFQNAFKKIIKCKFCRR
As to the kind of experiment: Tested in vitro for receptor binding affinity to 5-hydroxytryptamine 1A receptor in rat cortex using [3H]OH-DPAT radioligand.

Assay [2] has as its target GABA-A receptor; anion channel. The assay is described as follows: In vitro displacement of [3H]flunitrazepam from GABA-A central benzodiazepine receptor of guinea pig cerebellum. It is filed as tissue-based, Cavia porcellus. Background: Loss of bound radioactivity is the signal in a displacement assay; it reports binding, not function.
The target of assay [3] is 5-hydroxytryptamine receptor 1D (Cavia porcellus, UniProt Q60484). The assay is described as follows: Compound was tested for the inhibition of forskolin-stimulated adenylate cyclase at 5-hydroxytryptamine 1D receptor in guinea pig substantia nigra.
Sequence of 5-hydroxytryptamine receptor 1D (Q60484 whole entry): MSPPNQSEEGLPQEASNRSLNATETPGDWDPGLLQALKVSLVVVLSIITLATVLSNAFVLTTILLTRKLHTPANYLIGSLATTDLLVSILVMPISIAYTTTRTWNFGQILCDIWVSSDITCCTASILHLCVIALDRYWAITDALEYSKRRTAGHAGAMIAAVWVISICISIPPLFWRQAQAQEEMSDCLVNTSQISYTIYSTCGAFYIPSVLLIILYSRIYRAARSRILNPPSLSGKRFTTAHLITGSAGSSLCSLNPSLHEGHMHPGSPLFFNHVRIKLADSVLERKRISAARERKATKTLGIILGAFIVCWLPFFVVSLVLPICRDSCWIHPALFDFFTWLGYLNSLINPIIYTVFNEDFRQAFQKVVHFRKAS

As for `CN1CCC[C@@H]1Cc1c[nH]c2ccc(-n3cnc4cc(C#N)ccc43)cc12`, the results for the IC50 in assay [1] and in assay [2] were 20 nM and 3.3 nM, respectively. Besides, in assay [3], the midpoint of the response, the EC50, lay at 0.042 nM.

Regarding `NCCc1c[nH]c2ccc(O)cc12` [SEROTONIN], the EC50 in assay [3] worked out at 8.5 nM.

Turning to `CN(C)CCc1c[nH]c2ccc(-n3cnc4cccnc43)cc12`, the IC50 turned out to be 210 nM in assay [1] and 89 nM in assay [2]. In assay [3], this compound had an EC50 of 14 nM.

What is called IC50 is the concentration at which inhibition is half-maximal. Broadly, the EC50 is the midpoint of the concentration-response curve. A lower EC50 goes with greater potency.
